Measured values from patent US20240238186A1, “Topical Compositions Comprising (Glyco)Sphingolipids and/or (Glyco)Ceramides” (CarboCode S.A., priority 2021, published 2024).

What was measured:
Type in all cases: cell-based
[1] = test system: Reconstructed Human Epidermis (RHE); test: Proteomic analysis (LC-MS/MS) of Reconstructed Human Epidermis topically treated with lipid in base emulsion; settings: lipid in base emulsion 24h, vs vehicle
From the text: FIGS. 1 to 5 show heatmaps using a log 2 scale with up- or downregulation of respective proteins upon treatment with 0,01% (01), 0,03% (03) and 0,15% (15) of respective ceramide in vehicle as compared to vehicle without ceramide (VEH) (FIG. 1: LacCerNS, FIG. 2: GlcCerNS, FIG. 3: CerNP. FIG. 4: CerNG, FIG. 5: CerNS); detailed experimental setup explained in Example 4.
Material and methods: Reconstructed Human Epidermis (RHE) cell culture was used, as this system mimics the in vivo 3D structure of epidermal tissue as well as the conditions and processes that occur in normal epidermis. RHE were cultured using the medium provided by the manufacturer until analysis. RHE were maintained in survival for 24 hours, before RHE were topically treated with lipid in a base emulsion for 24h. 3 RHE were treated with base emulsion alone and 3 more remained untreated as a control batch (Ctrl). RHE were incubated under classical cell culture conditions (37° C., 5% CO2).
Sample preparation and LC-MS/MS analysis: Protein was extracted using the Pierce Total Protein Extraction Kit (Thermo Fisher) according to manufacturer's recommendations. The protein was mixed with Laemmli buffer and heated to 37° ° C. for 30 min. Protein concentration was determined by the BCA method and standardized for all samples. The samples were separated by SDS-PAGE and digested with trypsin overnight. The peptides generated were acidified and separated. The mass spectra were queried using Proteome Discoverer (version 2.5). The resulting MS/MS data were queried against the Homo sapiens proteome UP000005640 (20371 reviewed entries). Results were filtered based on unique peptides >2, and global peptide scores. Analyses were performed using Proteome Discoverer 2.5 to check for overall sample quality.
Bioinformatics and statistical analysis: Proteomic analysis returned a mean total of 34961 high-quality peptides corresponding to a mean 2422 identifiable and quantifiable RHE proteins among conditions. A summary of proteins differentially expressed within conditions is provided in Annexe 3. Proteins with a p-value≤0,05 in at least one of the concentrations tested for a lipid were considered significant and used for pairwise comparisons. Relevant proteins were classified by their biological processes and associated pathways using the publicly available gene ontology (GO) database provided by the Gene Ontology Consortium and Reactome. Interactome analysis was performed using Cytoscape combined with STRING.

[2] = test system: Human epidermal keratinocytes; test: Gene expression in keratinocytes, qPCR; settings: 200 ppm in DMSO, 1 week
Description: (§1) Human epidermal keratinocytes are obtained from a commercial vendor. The cells are isolated from juvenile foreskin or from adult normal human tissue collected from various sites that include face, breast, abdomen, and thigh. The cells are cultivated in a T25 flask using a commercial keratinocyte Growth Medium which is a serum-free medium and optimized for the in vitro cultivation of epidermal keratinocytes without feeder cells. A commercial growth supplement and calcium is added to a final concentration of 1.2 mM to induce differentiation.
(§2) Upon reaching cell confluence, the cells are treated with either 200 ppm glucosylceramide or 200 ppm lactosylceramide, each dissolved in dimethyl sulfoxide (DMSO) for 1 week. The cells are homogenised with 2 mL chloroform:methanol (2:1), and transferred to a vial containing Phosphate Buffered Saline (PBS). The homogeniser is rinsed twice with solvent and all rinses are together. The organic phase is evaporated to dryness.
Gene expression is determined by isolating RNA samples from the keratinocytes using a Qiagen RNeasy kit with DNase I digestion. Reverse transcription is performed using a high-capacity cDNA kit, cDNA samples of 40 ng are used for qPCR. Taqman gene expression assay is purchased commercially, and the qPCR reaction is performed using a fast amplifier. […] Relative gene expression is calculated by comparative CT method.

[3] = test system: Human epidermal keratinocytes; test: Ceramide levels produced by keratinocytes, HPTLC; settings: 200 ppm in DMSO, 1 week; compared to untreated keratinocytes
Description: as §1, §2
Ceramide levels produced by the keratinocytes are measured by a modified high-performance thin layer chromatography (HPTLC) method. […] The plates are stained with 3% copper acetate in 8% phosphoric acid and charred at 160° C. for the quantitation of ceramides. Quantification is performed against known quantities of Ceramide NP by laser scanning densitometry. Each plate is scanned at 425 nm and quantified using WinCATS software.

Compound	cytochrome c oxidase subunit 6C regulation [1]	phosphomevalonate kinase protein regulation [1]	transglutaminase-1 gene expression [2]	β-glucocerebrosidase (GBA) expression [2]	NAD-dependent malic enzyme (mitochondrial) regulation [1]	ATP synthase subunit delta (mitochondrial) regulation [1]	ATP synthase subunit g (mitochondrial) regulation [1]	ceramide synthase 4 protein regulation [1]	proteins of the mitochondrial respiratory chain, regulation [1]	syndecan-1 protein regulation [1]	IL8 gene expression [2]	TNF gene expression [2]	expression of the ABCA12 gene [2]	involucrin gene expression [2]	Total ceramides in keratinocytes [3]	ATP-dependent zinc metalloprotease YME1L1 regulation [1]	further results
CCCCCCCCCCCCCCCCCC(=O)N[C@@H](CO)[C@H](O)CCCCCCCCCCCCCCC [ceramide NG]	upregulation	upregulation				upregulation	upregulation	upregulation	upregulation								loricrin protein regulation [1]: upregulation; repetin protein regulation [1]: upregulation; small proline-rich protein 2D regulation [1]: upregulation
CCCCCCCCCCCCC/C=C/[C@@H](O)[C@H](CO)NC(=O)CCCCCCCCCCCCCCCCC [ceramide NS]		upregulation								upregulation							cornifin-B protein regulation [1]: upregulation; filaggrin-2 protein regulation [1]: upregulation; kallikrein-5 protein regulation [1]: upregulation

Second part, led by results:

cytochrome c oxidase subunit 6C regulation [1]	phosphomevalonate kinase protein regulation [1]	transglutaminase-1 gene expression [2]	β-glucocerebrosidase (GBA) expression [2]	NAD-dependent malic enzyme (mitochondrial) regulation [1]	Compound	ATP synthase subunit delta (mitochondrial) regulation [1]	ATP synthase subunit g (mitochondrial) regulation [1]	ceramide synthase 4 protein regulation [1]	proteins of the mitochondrial respiratory chain, regulation [1]	syndecan-1 protein regulation [1]	IL8 gene expression [2]	TNF gene expression [2]	expression of the ABCA12 gene [2]	involucrin gene expression [2]	Total ceramides in keratinocytes [3]	ATP-dependent zinc metalloprotease YME1L1 regulation [1]	further results
	upregulation				CCCCCCCCCCCCCCCCCC(=O)N[C@@H](CO)[C@H](O)[C@H](O)CCCCCCCCCCCCCC [ceramide NP]				upregulation	upregulation							NADH dehydrogenase [ubiquinone] iron-sulfur protein 8 (mitochondrial) regulation [1]: upregulation; long-chain-fatty-acid-CoA ligase 3 protein regulation [1]: upregulation; phosphopantothenate-cysteine ligase protein regulation [1]: upregulation
upregulation	upregulation	increase in expression	Up-regulation	upregulation	CCCCCCCCCCCCC/C=C/[C@@H](O)[C@H](CO[C@@H]1O[C@H](CO)[C@@H](O)[C@H](O)[C@H]1O)NC(=O)CCCCCCCCCCCCCCCCC [glucosyl ceramide]	upregulation	upregulation		upregulation		reduced gene expression	reduced gene expression	increases	increase in expression	elevated	upregulation	3-ketodihydrosphingosine reductase protein regulation [1]: upregulation; NADH dehydrogenase [ubiquinone] 1 alpha subcomplex subunit 8 regulation [1]: upregulation; NADH dehydrogenase [ubiquinone] iron-sulfur protein 2 (mitochondrial) regulation [1]: upregulation; acetyl-coenzyme A synthetase (cytoplasmic) protein regulation [1]: upregulation; malonate-CoA ligase ACSF3 (mitochondrial) protein regulation [1]: upregulation
upregulation	upregulation	increase in expression	Up-regulation	upregulation	CCCCCCCCCCCCC/C=C/[C@@H](O)[C@H](CO[C@@H]1O[C@H](CO)[C@@H](O[C@@H]2O[C@H](CO)[C@H](O)[C@H](O)[C@H]2O)[C@H](O)[C@H]1O)NC(=O)CCCCCCCCCCCCCCCCC [lactosylceramide]	upregulation	upregulation	upregulation	upregulation	upregulation	reduced gene expression	reduced gene expression	increases	increase in expression	elevated	upregulation	cytochrome b-c1 complex subunit 9 regulation [1]: upregulation; cytochrome c oxidase subunit 2 regulation [1]: upregulation; cytochrome c oxidase subunit NDUFA4 regulation [1]: upregulation
